According to patent US6743917B2, “Camptothecin analogs and methods of preparation thereof” (University of Pittsburgh, priority 1993, dated 2004):
pIC50: −log10 of the molar value. Like-named read-outs stand apart in the source and are kept apart here.

Assays:
[1] = tested on: HL-60 (human promyelocytic leukemic) cells; assay: Cytotoxicity assay, HL-60 cells (XTT-microculture tetrazolium assay); type: cell-based; conditions: read-out: Inhibition of cancer cell growth IC50, HL-60
Procedure: The camptothecin derivatives were evaluated for their cytotoxic effects on the growth of HL-60 (human promyelocytic leukemic), 833K (human teratocarcinoma) and DC-3F (hamster lung) cells in vitro. The cells were cultured in an initial density of […]. They were maintained in a 5% CO2 humidified atmosphere at 37° C. in RPMI-1640 media (GIBCO-BRL Grand Island, N.Y.) containing penicillin 100 μ/ml)/streptomycin (100 ^μg/ml) (GIBCO-BRL) and 10% heat inactivated fetal bovine serum. The assay was performed in duplicate in 96-well microplates. The cytotoxicity of the compounds toward HL-60 cells following 72 hr incubation was determined by XTT-microculture tetrazolium assay. Scudiero, D. A., et al., Cancer Res., 48, 4827 (1988), the disclosure of which is incorporated herein by reference. 2′, 3′-bis(-methoxy-4-nitro-5-sulfheny)-5-[(phenylamino)carbonyl]-2H-tetrazolium hydroxide (XTT) was prepared at 1 mg/ml in prewarmed (37° C.) medium without serum. Phenazine methosulfate (PMS) and fresh XTT were mixed together to obtain 0.075 mM PMS-XTT solution (25 ^μl of the stock 5 mM PMS was added per 5 ml of 1 mg/ml XTT). Fifty ^μl of this mixture was added to each well of the cell culture at the end of 72 hr incubation. After incubation at 37° C. for 4 hr., absorbance at 450 nm and 630 nm was measured with a microplate reader (EL340, Bio-Tek Instruments, Inc., Winooski, Vt.).

[2] = tested on: 833K (human teratocarcinoma) cells; assay: Cytotoxicity assay, 833K cells (sulforhodamine B protein content); type: cell-based; conditions: read-out: Inhibition of cancer cell growth IC50, 833K
Procedure: (§1) Cultures were fixed with trichloroacetic acid and then stained for 30 minutes with 0.4% sulforhodamine B dissolved in 1% acetic acid. Unbound dye was removed by acetic acid washes, and the protein-bound dye was extracted with an unbuffered Tris base [tris(hydroxy-methyl)aminomethan] for determination of absorbance at 570 nm in a 96-well microplate reader. The experiments were carried out in duplicate using five to six concentrations of the drugs tested. Data were analyzed via computer software.

[3] = tested on: DC-3F (hamster lung) cells; assay: Cytotoxicity assay, DC-3F cells (sulforhodamine B protein content); type: cell-based; conditions: read-out: Inhibition of cancer cell growth IC50, DC-3F
Procedure: as §1

[4] = Equilibrium binding to DMPC small unilamellar vesicles (fluorescence anisotropy titration); conditions: PBS buffer at PH 7.4 and 37° C.
[5] = Equilibrium binding to DMPG small unilamellar vesicles (fluorescence anisotropy titration); conditions: PBS buffer at PH 7.4 and 37° C.
[6] = Kinetics of lactone ring opening in PBS buffer (HPLC); type: physicochemical; conditions: PBS
Procedure: Kinetics of Lactone Ring Opening. […] Mi and Burke (1994), supra.
FIG. 21 summarizes the stability of DB172 in phosphate buffered saline (PBS) buffer, pH 7.4, at physiological temperature. Shown in the figure are plots of lactone fraction as a function of time for DB172 at different concentrations. Drug was added to solution from a concentrated DMSO stock solution such that the volumes of DMSO were very small (less than 0.5%) relative to the volume of water. […] At the more dilute drug concentrations the drug hydrolyzes as previously observed for other camptothecins containing the ^α-hydroxy-^δ-lactone moiety.

[7] = Kinetics of lactone ring opening in whole human blood (HPLC); conditions: Whole Blood, physiological temperature;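 note: hydrolytic opening of the camptothecin lactone ring followed over time by quantitative C18 reversed-phase HPLC in human whole blood at physiological temperature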
[8] = Kinetics of lactone ring opening in PBS containing HSA (HPLC); conditions: HSA (PBS containing 30 mg/ml HSA)
[9] = Kinetics of lactone ring opening in RBC (HPLC); type: in vitro ADME, human; conditions: RBC
Text: Kinetics of Lactone Ring Opening. […] Mi and Burke (1994), supra. […] Louis, Mo.) was used.

[10] = Homo sapiens, HL-60 cells, 72 hr incubation, XTT
[11] = Homo sapiens, 833K cells, sulforhodamine B
[12] = Mesocricetus auratus, DC3F, DC-3F cells, sulforhodamine B
[13] = HL-60 cells, 72 hr incubation, XTT

Row | Molecule | pIC50 [1, 10] | pIC50 [2, 11] | pIC50 [3, 12] | KDMPC overall association constant [4] [M⁻¹] | KDMPG overall association constant [5] [M⁻¹] | also measured
1 | CCC1(O)C(=O)OCc2c1cc1n(c2=O)Cc2c-1nc1ccccc1c2[Si](c1ccccc1)(c1ccccc1)C(C)(C)C (stereo in doubt) [Example 3, (20S)-7-tert-butyldiphenylsilylcamptothecin] | 6.47 | 6.61 | 6.18 | – | – | –
2 | CCC1(O)C(=O)OCc2c1cc1n(c2=O)Cc2c-1nc1ccc(OC(C)=O)cc1c2[Si](C)(C)C (stereo in doubt) [Example 4, (20S)-10-acetoxy-7-trimethylsilylcamptothecin] | 8.57 | – | 8.17 | – | – | –
3 | CCC1(O)C(=O)OCc2c1cc1n(c2=O)Cc2c-1nc1ccc(O)cc1c2[Si](C)(C)C (stereo in doubt) [Example 5, (20S)-10-hydroxy-7-trimethylsilylcamptothecin] | 8.59 | 8.15 | 8.16 | – | – | –
4 | CCC1(O)C(=O)OCc2c1cc1n(c2=O)Cc2c-1nc1ccc(OC(=O)N3CCC(N4CCCCC4)CC3)cc1c2[Si](C)(C)C (stereo in doubt) [Example 6, (20S) 7-trimethylsilyl-irinotecan] | – | – | – | – | – | pIC50 ([1]; Homo sapiens, HL-60, 72 h): 7.18; pIC50 ([2]; Homo sapiens, 833K): 6.67; pIC50 ([3]; Mesocricetus auratus, DC3F): 6.59
5 | CCC1(O)C(=O)OCc2c1cc1n(c2=O)Cc2c-1nc1cc(N)ccc1c2[Si](C)(C)C (stereo in doubt) [Example 9, (20S)-11-amino-7-trimethylsilylcamptothecin] | 8.59 | 8.13 | 8.19 | – | – | –
6 | CCC1(O)C(=O)OCc2c1cc1n(c2=O)Cc2c-1nc1cc(F)c(N)cc1c2[Si](C)(C)C (stereo in doubt) [Example 10, (20S)-11-fluoro-10-amino-7-trimethylsilylcamptothecin] | 10.15 | 9.85 | 9.54 | – | – | –
7 | CCCCc1c2c(nc3ccc(O)cc13)-c1cc3c(c(=O)n1C2)COC(=O)C3(O)CC (stereo not drawn) [7-butyl-10-hydroxycamptothecin] | – | – | – | 2100 | 1270 | –
8 | CCc1c2c(nc3ccc(OC)cc13)-c1cc3c(c(=O)n1C2)COC(=O)C3(O)CC (stereo not drawn) [7-ethyl-10-methoxycamptothecin] | – | – | – | 340 | 330 | –
9 | CCc1c2c(nc3ccccc13)-c1cc3c(c(=O)n1C2)COC(=O)[C@]3(O)CC [7-ethyl-20(S)-camptothecin] | – | – | – | 250 | 300 | –
10 | CCC1(O)C(=O)OCc2c1cc1n(c2=O)Cc2c-1nc1ccc(O)cc1c2C (stereo not drawn) [7-methyl-10-hydroxycamptothecin] | – | – | – | 220 | 90 | –
11 | CCC1(O)C(=O)OCc2c1cc1n(c2=O)Cc2c-1nc1ccc(OC)cc1c2C (stereo not drawn) [7-methyl-10-methoxycamptothecin] | – | – | – | 220 | 200 | –
12 | CC[C@@]1(O)C(=O)OCc2c1cc1n(c2=O)Cc2c-1nc1ccccc1c2C [7-methyl-20(S)-camptothecin] | – | – | – | 150 | 180 | –
13 | CCCc1c2c(nc3ccc(O)cc13)-c1cc3c(c(=O)n1C2)COC(=O)C3(O)CC (stereo not drawn) [7-propyl-10-hydroxycamptothecin] | – | – | – | 550 | 250 | –
14 | CCCc1c2c(nc3ccc(OC)cc13)-c1cc3c(c(=O)n1C2)COC(=O)C3(O)CC (stereo not drawn) [7-propyl-10-methoxycamptothecin] | – | – | – | 440 | 570 | –
15 | CCCc1c2c(nc3ccccc13)-c1cc3c(c(=O)n1C2)COC(=O)[C@]3(O)CC [7-propyl-20(S)-camptothecin] | – | – | – | 540 | 600 | –
16 | CC[C@@]1(O)C(=O)OCc2c1cc1n(c2=O)Cc2c-1nc1ccc(O)cc1c2[Si](C)(C)CCCN(C)C.Cl [DB-124, 10-hydroxy-7-(3-dimethylaminopropyldimethylsilyl) camptothecin hydrochloride salt] | – | – | – | – | – | % Lactone at Equilibrium [6]: 8.9 +/− 0.3%; % Lactone at Equilibrium [7]: 31.8 +/− 0.8%; t1/2 [7]: 63.1 ± 7.4 min; % Lactone at Equilibrium [8]: 12.2 +/− 0.3%; t1/2 [8]: 40.0 ± 0.3 min
17 | CC[C@@]1(O)C(=O)OCc2c1cc1n(c2=O)Cc2c-1nc1ccccc1c2[Si](C)(C)CCCCl [DB-148, (20S)-7-(3-chloropropyldimethylsilyl)camptothecin] | – | – | – | – | – | % Lactone at Equilibrium [6]: 12.0 +/− 0.5%; % Lactone at Equilibrium [9]: 43.4 +/− 0.8%; t1/2 [9]: 59.7 ± 2.9 min; % Lactone at Equilibrium [7]: 2.2 +/− 3.6%; t1/2 [7]: 85.6 ± 9.2 min; % Lactone at Equilibrium [8]: 2.7 +/− 0.2%; t1/2 [8]: 16.0 ± 0.2 min
18 | CC[C@@]1(O)C(=O)OCc2c1cc1n(c2=O)Cc2c-1nc1ccccc1c2[Si](C(C)C)(C(C)C)C(C)C [Example 12, 20S-7-triisopropylsilylcamptothecin] | 5.82 | 4.97 | 5.98 | – | – | –
19 | CC[C@@]1(O)C(=O)OCc2c1cc1n(c2=O)Cc2c-1nc1ccccc1c2[Si](CC)(CC)CC [Example 13, (20S)-7-Triethylsilylcamptothecin] | 7.50 | 6.91 | 7.24 | – | – | –
20 | CC[C@@]1(O)C(=O)OCc2c1cc1n(c2=O)Cc2c-1nc1ccccc1c2[Si](C)(C)CC1CCC2CC1C2(C)C (stereo partly drawn) [Example 14, (20S)-7-(dimethyl-(1′S,2′S,5′S) 7,7 dimethylnorpinylsilyl)camptothecin] | 7.17 | 6.71 | 7.19 | – | – | –
21 | CC[C@@]1(O)C(=O)OCc2c1cc1n(c2=O)Cc2c-1nc1ccccc1c2[Si](C)(C)CCCC#N [Example 15, (20S)-7-(3-cyanopropyldimethylsilyl)camptothecin] | 9.04 | 8.57 | 8.57 | – | – | –
22 | CC[C@@]1(O)C(=O)OCc2c1cc1n(c2=O)Cc2c-1nc1ccccc1c2[Si](C)(C)CCCCl [Example 16, (20S)-7-(3-halopropyldimethylsilyl) camptothecin] | 8.68 | 8.27 | 8.64 | – | – | –
23 | CC[C@@]1(O)C(=O)OCc2c1cc1n(c2=O)Cc2c-1nc1ccc(OC(C)=O)cc1c2[Si](C)(C)C(C)(C)C [Example 17, (20S)10-acetoxy-7-tert-butyldimethylsilylcamptothecin] | 8.73 | – | 8.45 | – | – | –
24 | CC[C@@]1(O)C(=O)OCc2c1cc1n(c2=O)Cc2c-1nc1ccc(OC(C)=O)cc1c2[Si](C)(C)C(C)(C)C [Example 18, (20S)10-Acetoxy-7-tert-butyldimethylsilylcamptothecin] | – | – | – | – | – | pIC50 [1, 13]: 8.59; pIC50 ([3]; DC-3F cells, sulforhodamine B): 8.28
25 | (20S)-11,12-difluoro-7-trimethylsilylcamptothecin and (20S)-9,10-difluoro-7-trimethylsilylcamptothecin [Example 11] | – | – | – | – | – | pIC50 [1, 13]: 9.00; pIC50 ([2]; 833K cells, sulforhodamine B): 8.68; pIC50 ([3]; DC-3F cells, sulforhodamine B): 8.60
